Data published in US7449537B2, “Antineoplastic polyalkoxyalkylsiloxanes and methods of use thereof” (NDSU Research Foundation, priority 2001, dated 2008).

Key:
Type in all cases: cell-based, human
[1] = test system: 3-cell line panel MCF7, NCI-H460, SF-268; assay: DTP screen, overall activity call over the 3-cell line panel; design: key to Activity: Active: Compounds which reduce the growth of any one of the cell lines to a value of +32% or less (negative numbers indicate cell kill) are generally considered to be sufficiently “active”; settings: for Activity: 1.00 E-04 Molar; for antineoplastic activity in the DTP screen: three test cell lines
Excerpt: (§1) For the past 10 years, the Developmental Therapeutics Program (DTP) of the National Cancer Institute (NCI) has used an in vitro model consisting of 60 human tumor cell lines as the primary anticancer screen (see, J. Natl. Cancer Inst., 83:757-766, (1991)). […] In view of this, the DTP now uses a 3-cell line panel consisting of the MCF7(breast carcinoma) cell line, the NCI-H460 (lung carcinoma) cell line, and the SF-268 (CNS glioma) cell line as its primary anticancer (antineoplastic) assay. This 3-cell line, single-dose assay has been in use by DTP for several years for the evaluation of combinatorial libraries and has proven to be an effective pre-screen for compounds with antineoplastic activity.
(§2) In the DTP protocol, each cell line is inoculated and preincubated on a microtiter plate. Test agents are then added at a single concentration and the culture incubated for 48 hours. End-point determination are made with sulforhodamine B, a protein-binding dye. Results for each test agent are reported as the percent of growth of the treated cells normalized against the growth of the corresponding untreated control cells, i.e., a reported value of +100% refers to cell growth equivalent to that of the corresponding untreated control cells. […] Compounds which reduce the growth of any one of the cell lines to a value of +32% or less (negative numbers indicate cell kill) are generally considered to be sufficiently “active” to be selected for further evaluation by NCI in a full panel of 60 tumor cell lines over a 5-log dose range.
(§3) Two poly((aminofunctional alkoxy)-alkylsiloxane) compounds were tested for antineoplastic activity in the DTP screen. The two compounds (linear poly((aminofunctional alkoxy)-alkylsiloxanes) 5 and 3) were prepared according to the procedures described in Examples 2 and 5 above, respectively. […] This compound includes 1,3-N,N-dimethylamino-2-propoxy groups.

[2] = test system: MCF7 (breast carcinoma) cell line; assay: DTP 3-cell line single-dose antineoplastic pre-screen (sulforhodamine B); settings: 1.00 E-04 Molar, 48 hours, growth relative to untreated control cells; negative = cell kill
Excerpt: as §1, §2, §3

[3] = test system: NCI-H460 (lung carcinoma) cell line; assay: as above; settings: 1.00 E-04 Molar, 48 hours, growth relative to untreated control cells; negative = cell kill
Excerpt: as §1, §2, §3

[4] = test system: SF-268 (CNS glioma) cell line; assay: as above; settings: 1.00 E-04 Molar, 48 hours, growth relative to untreated control cells; negative = cell kill
Excerpt: as §1, §2, §3

Row | SMILES | Activity [1] | antineoplastic activity in the DTP screen [1] | Growth Percentages (Breast) MCF7 [2] | Growth Percentages (Lung) NCI-H460 [3] | Growth Percentages (CNS) SF-268 [4]
1 | C[Si](C)(C)O[Si](C)(OCCCN)O[Si](C)(OCCCN)O[Si](C)(C)C (stereo not shown) [Compound 3, bis-(trimethylsiloxy)-1,3-dimethyl-1,3-(3-amino-1-propoxy)siloxane] | Inactive | inactive | – | – | –
2 | CN(C)CC(CN(C)C)O[Si](C)(O[Si](C)(C)C)O[Si](C)(OC(CN(C)C)CN(C)C)O[Si](C)(C)C (stereo not shown) [Compound 5, bis-(trimethylsiloxy)-1,3-dimethyl, 1,3-(1,3-(N,N-dimethylamino)-2-propoxy)siloxane] | Active | showed antineoplastic activity against all three test cell lines | −5% | −16% | −24%
